US7067520B2, “Preventive or therapeutic medicines for diabetes containing fused-heterocyclic compounds or their salts” (Ishihara Sangyo Kaisha, Ltd., priority 2000, dated 2006)

SMILES | melting point
CSc1nc2ccnn2c(N(Cc2ccccn2)Cc2ccccn2)c1C#N [compound 6] | 139 °C
CSc1nc2ccnn2c(OCCOc2ccccc2)c1C#N [compound 182] | 125 °C
CSc1nc2ccnn2c(Nc2cccc(C#N)c2)c1C(=O)OCc1ccccc1 [compound 148] | 141 to 142 °C
CSc1nc(NCc2ccccc2)n2nccc2n1 [compound 39] | 133 °C
COC(=O)c1c(SC)nc2ccnn2c1NC1CCCC1 [compound 123] | 84.5 to 85.5 °C
CSc1nc2ccnn2c(NCc2cccc(Cl)c2)c1C#N [compound 32] | 155 °C
CSc1nc2cc(C)nn2c(Nc2ccccc2)c1C#N [compound 189] | 185 to 187 °C
CSc1nc2ccnn2c(Nc2ccc(NC(C)=O)cc2)c1C#N [compound 193] | > 280 °C
N#Cc1c(-c2ccccc2)nc2ccnn2c1NCc1ccncc1 [compound 89] | 199 to 201 °C
COc1c(C#N)c(SC)nc2ccnn12 [compound 229] | 223 to 224 °C
COC(=O)c1ccc(CNc2c(C#N)c(SC)nc3ccnn23)cc1 [compound 23] | 171 °C
C#CCNc1c(S(C)(=O)=O)c(SC)nc2ccnn12 [compound 59] | 175 °C
CSc1nc2ccnn2c(Cl)c1C#N [compound 62, 7-chloro-5-methylthiopyrazolo[1,5-a]pyrimidine-6-carbonitrile] | 201 to 202 °C
CSc1nc2ccnn2c(Nc2ccc3ncsc3c2)c1C#N [compound 166] | 140 to 141 °C
CSc1nc2cc(C)nn2c(NCc2ccccc2)c1C#N [compound 187] | 204 to 205 °C
CSc1nc2ccnn2c(Nc2ccncc2)c1C#N [compound 81] | 260 to 263 °C
C=CCSc1nc2ccnn2c(N)c1C#N [compound 75] | 258.5 to 259 °C
CSc1nc2ccnn2c(NCOCc2ccccc2)c1C#N [compound 10] | 63 to 64 °C

SMILES | melting point
CSc1nc2c(Br)cnn2c(NCc2ccccc2)c1C#N [compound 55] | 184 °C
CSc1nc2nc3ccccc3n2c(N)c1C#N [compound 45] | > 250 °C
CSc1nc2ccnn2c(Nc2ccc(C(C)=O)cc2)c1C#N [compound 199] | 260 to 261 °C
CSc1nc2ccnn2c(NCC2CCCO2)c1C#N (stereo not drawn) [compound 212] | 116 to 120 °C
CSc1nc2cc(-c3ccccc3)nn2c(N)c1C#N [compound 44] | 233 °C
COc1ccc(CNc2c(C#N)c(SC)nc3ccnn23)cc1 [compound 56] | 137 °C
N#Cc1c(SC2CCCC2)nc2ccnn2c1N [compound 103] | 270.5 to 271.3 °C
CSc1nc2ccnn2c(Nc2ccc(N(C)C)cc2)c1C#N [compound 202] | 250 to 252 °C
CSc1nc2ccnn2c(Nc2ccccc2C#N)c1C#N [compound 214] | 206 to 208 °C
CCOCSc1nc2ccnn2c(NCc2ccccc2)c1C#N [compound 117] | 130.5 to 133.5 °C
CSc1nc2ccnn2c(NCc2ccncc2)c1C(=O)OCc1ccccc1 [compound 147] | 122 to 123 °C
CSc1nc2ccnn2c(NOc2ncc(C(F)(F)F)cc2Cl)c1C#N [compound 204] | 182 to 183 °C
CSc1nc2ccnn2c(NCc2ccccc2)c1[N+](=O)[O-] [compound 125] | 136.5 to 138.5 °C
CSc1nc2ccnn2c(NC2CCCC2)c1[N+](=O)[O-] [compound 127] | 132 to 134 °C
CSc1nc2ccnn2c(Nc2ccc3c(c2)CCC3)c1C#N [compound 165] | 146 to 148 °C
COC(=O)c1ccc(Nc2c(C#N)c(SC)nc3ccnn23)cc1 [compound 171] | 205 to 206 °C
CCSc1nc2ccnn2c(NCc2ccccc2)c1C#N [compound 67] | 112 to 113.4 °C
CCC(CC)Sc1nc2ccnn2c(NCc2ccccc2)c1C#N [compound 114] | 107 to 108.3 °C
